Results reported in ChEMBL document CHEMBL5233248, “Resveratrol - A comprehensive review of recent advances in anticancer drug design and development” (Eur J Med Chem, 2020).
One block for each molecule: values may come before it.

Tests used:
Aromatase = target: T1, Aromatase (Homo sapiens, UniProt P11511); assay: Inhibition of human recombinant aromatase using 7-methoxy-4-trifluoromethyl coumarin as substrate preincubated for 10 mins followed by compound addition measured after 30 mins in presence of NADPH by HTS analysis
T1 sequence (P11511 whole entry): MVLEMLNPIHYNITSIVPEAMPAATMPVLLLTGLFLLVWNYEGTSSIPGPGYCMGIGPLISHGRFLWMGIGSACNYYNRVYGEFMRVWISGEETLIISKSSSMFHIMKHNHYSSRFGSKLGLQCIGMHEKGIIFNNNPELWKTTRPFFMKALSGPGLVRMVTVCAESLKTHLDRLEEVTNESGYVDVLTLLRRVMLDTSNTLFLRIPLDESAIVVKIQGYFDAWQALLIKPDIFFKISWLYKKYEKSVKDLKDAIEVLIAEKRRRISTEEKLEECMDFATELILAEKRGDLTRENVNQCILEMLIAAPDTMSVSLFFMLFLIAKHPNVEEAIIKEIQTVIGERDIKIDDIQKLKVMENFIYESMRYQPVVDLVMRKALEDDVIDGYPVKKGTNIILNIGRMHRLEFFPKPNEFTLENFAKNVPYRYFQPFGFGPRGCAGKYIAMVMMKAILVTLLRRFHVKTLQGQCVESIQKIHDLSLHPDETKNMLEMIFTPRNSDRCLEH

[1] = test system: Panel NCI-60 (60 carcinoma cell lines); assay: Growth inhibition of human Panel NCI-60 (60 carcinoma cell lines); type: functional
[2] = Anticancer activity against human MuM-2B cells assessed as cell growth inhibition incubated for 72 hrs by CCK-8 assay; type: functional, cell-based
MDA-MB-435 = assay: Anticancer activity against human MDA-MB-435 cells assessed as cell growth inhibition; type: functional
UACC-62 = assay: Anticancer activity against human UACC-62 cells assessed as cell growth inhibition; type: functional
MV4-11 = assay: Anticancer activity against human MV4-11 cells assessed as cell growth inhibition; type: functional; settings: read-out: LD50 (the source's name)
SF-295 = assay: Anticancer activity against human SF-295 cells assessed as cell growth inhibition; type: functional
COLO 205 = assay: Anticancer activity against human COLO 205 cells assessed as cell growth inhibition; type: functional
SF-539 = assay: Anticancer activity against human SF-539 cells assessed as cell growth inhibition; type: functional
SK-MEL-5 = assay: Anticancer activity against human SK-MEL-5 cells assessed as cell growth inhibition; type: functional
HCT-116 = assay: Anticancer activity against human HCT-116 cells assessed as cell growth inhibition incubated for 4 days; type: functional, cell-based; settings: HCT-116, 96 h
PC-3 = assay: Anticancer activity against human PC-3 assessed as cell growth inhibition incubated for 24 hrs by MTT assay; type: functional, cell-based; settings: PC-3, 24 h
MCF7 [3] = assay: Anticancer activity against human MCF7 assessed as cell growth inhibition incubated for 24 hrs by MTT assay; type: functional, cell-based; settings: MCF7, 24 h
HeLa [4] = assay: Anticancer activity against human HeLa cells assessed as cell growth inhibition; type: functional, cell-based
MDA-MB-231 [5] = assay: Anticancer activity against human MDA-MB-231 cells assessed as cell growth inhibition incubated for 48 hrs by SRB assay; type: functional, cell-based; settings: MDA-MB-231, 48 h
PANC-1 = assay: Anticancer activity against human PANC-1 cells assessed as cell growth inhibition incubated for 48 hrs by SRB assay; type: functional
SK-OV-3 [6] = assay: Anticancer activity against human SK-OV-3 assessed as cell growth inhibition incubated for 72 hrs by MTT assay; type: functional, cell-based; settings: SK-OV-3, 72 h
MCF-12A = assay: Anticancer activity against human MCF-12A cells assessed as reduction of cell viability incubated for 48 hrs by MTT assay; type: functional, cell-based
MCF7 [7] = assay: Anticancer activity against human MCF7 cells assessed as reduction of cell viability incubated for 48 hrs by MTT assay; type: functional, cell-based; settings: MCF7, 48 h
HaCaT = assay: Anticancer activity against human HaCaT cells assessed as reduction of cell viability incubated for 48 hrs by MTT assay; type: functional, cell-based
A-431 = assay: Anticancer activity against human A-431 cells assessed as reduction of cell viability incubated for 48 hrs by MTT assay; type: functional, cell-based; settings: A-431, 48 h
HeLa [8] = assay: Anticancer activity against human HeLa cells assessed as cell growth inhibition incubated for 48 hrs by MTT assay; type: functional, cell-based
HL-60 = assay: Anticancer activity against human HL-60 cells assessed as cell growth inhibition incubated for 48 hrs by MTT assay; type: functional, cell-based; settings: HL-60, 48 h
A2780 [9] = assay: Anticancer activity against human A2780 cells assessed as cell growth inhibition incubated for 24 hrs […] by MTT assay; type: functional, cell-based; settings: A2780, 24 h
OVCAR-3 [10] = assay: Anticancer activity against human OVCAR-3 cells assessed as cell growth inhibition incubated for 24 hrs […] by MTT assay; type: functional, cell-based; settings: OVCAR-3, 24 h
SK-OV-3 [11] = assay: Anticancer activity against human SK-OV-3 cells assessed as cell growth inhibition incubated for 24 hrs […] by MTT assay; type: functional, cell-based; settings: SK-OV-3, 24 h
[12] = Anticancer activity against human HOSE cells assessed as cell growth inhibition incubated for 24 hrs […] by MTT assay; type: functional, cell-based
A2780 [13] = assay: Anticancer activity against human A2780 cells assessed as cell growth inhibition by LDH release assay; type: functional, cell-based
OVCAR-3 [14] = assay: Anticancer activity against human OVCAR-3 cells assessed as cell growth inhibition by LDH release assay; type: functional, cell-based
SK-OV-3 [15] = assay: Anticancer activity against human SK-OV-3 cells assessed as cell growth inhibition by LDH release assay; type: functional, cell-based
[16] = Anticancer activity against human HOSE cells assessed as cell growth inhibition by LDH release assay; type: functional, cell-based
[17] = Anticancer activity against human Peritoneal mesothelial cells assessed as cell growth inhibition incubated for 24 hrs […] by MTT assay; type: functional, cell-based
[18] = Anticancer activity against human Peritoneal mesothelial cells assessed as cell growth inhibition by LDH release assay; type: functional, cell-based
B16-F10 [19] = assay: Anti cancer activity against mouse B16-F10 cells assessed as cell growth inhibition incubated for 40 hrs by Almar Blue stained fluorescence-based assay; type: functional; settings: B16-F10, 40 h
B16-F10 [20] = assay: Anti cancer activity against mouse B16-F10 cells assessed as cell growth inhibition incubated for 40 hrs by Almar Blue stained fluorescence-based assay relative to control; type: functional
MCF7 [21] = assay: Anticancer activity against human MCF7 cells assessed as cell viability at 10 uM measured after 7 days relative to control; type: functional; settings: MCF7, 168 h, time 7 day, read-out: Activity
ZR-75-1 = assay: Anticancer activity against human ZR-75-1 cells assessed as cell viability at 10 uM measured after 7 days relative to control; type: functional; settings: ZR-75-1, 168 h, time 7 day, read-out: Activity
BT-549 = assay: Anticancer activity against human BT-549 cells assessed as cell viability at 10 uM measured after 7 days relative to control; type: functional; settings: BT-549, 168 h, time 7 day, read-out: Activity
MDA-MB-157 = assay: Anticancer activity against human MDA-MB-157 cells assessed as cell viability at 10 uM measured after 7 days relative to control; type: functional; settings: MDA-MB-157, 168 h, time 7 day, read-out: Activity
MDA-MB-231 [22] = assay: Anticancer activity against human MDA-MB-231 cells assessed as cell viability at 10 uM measured after 7 days relative to control; type: functional; settings: MDA-MB-231, 168 h, time 7 day, read-out: Activity
HT-29 = assay: cells; settings: Homo sapiens, HT-29, 48 h
Description: Anti cancer activity against human HT-29 cell assessed as cell growth inhibition incubated for 48 hrs by Brdu assay

Caco-2 = assay: cells; settings: Homo sapiens, Caco-2, 48 h
Description: Anti cancer activity against human Caco-2 cell assessed as cell growth inhibition incubated for 48 hrs by Brdu assay

HepG2 = assay: cells; settings: Homo sapiens, HepG2, 48 h
Description: Anti cancer activity against human HepG2 cell assessed as cell growth inhibition incubated for 48 hrs by Brdu assay

MCF7 [23] = assay: Anticancer activity against human MCF7 cells assessed as cell growth inhibition incubated for 48 hrs by MTS assay; type: functional, cell-based; settings: MCF7, 48 h
[24] = Cytotoxicity activity against human CCD-1059Sk cells assessed as cell growth inhibition incubated for 48 hrs by MTS assay; type: toxicity, cell-based
MCF7 [25] = assay: Anticancer activity against human MCF7 cells assessed as cell growth inhibition incubated for 48 hrs in presence of resveratrol by MTS assay; type: functional, cell-based; settings: MCF7, 48 h
[26] = Cytotoxicity activity against human CCD-1059Sk cells assessed as cell growth inhibition incubated for 48 hrs in presence of resveratrol by MTS assay; type: toxicity, cell-based
in vitro [27] = settings: human, CCD-1059Sk cells and MCF7 cells
Description: Selectivity index, ratio of IC50 for cytotoxicity against CCD-1059Sk cells to IC50 for antiproliferative activity against MCF7 cells

in vitro [28] = settings: human, CCD-1059Sk cells and MCF7 cells; remark: listed apart in the source
Description: Selectivity index, ratio of IC50 for cytotoxicity against CCD-1059Sk cells to IC50 for antiproliferative activity against MCF7 cells in presence of resveratrol

- IC50 (Aromatase): 85 µM
SMILES: COc1ccccc1/C=C/c1ccc(OC)c(OC)c1

SMILES: COc1ccc(/C=C(\C#N)c2cc(OC)c(OC)c(OC)c2)cc1O
- GI50 [1]: < 0.01 µM

SMILES: COc1cc(/C=C/c2ccc(OCC(=O)O[C@H]3c4cc5c(cc4[C@@H](c4cc(OC)c(OC)c(OC)c4)[C@H]4C(=O)OC[C@@H]43)OCO5)cc2)cc(OC)c1
- IC50 [2]: 0.081 µM

SMILES: COc1ccc(/C(C#N)=C/c2ccc3ccccc3c2)cc1OC
- GI50 (MDA-MB-435): 0.025 µM
- GI50 (UACC-62): 0.025 µM
- CC50 (MV4-11): 0.45 µM
- GI50 (SF-295): 0.025 µM

SMILES: COc1cc(/C(C#N)=C/c2ccc3ccccc3c2)cc(OC)c1OC
- GI50 (COLO 205): ≤ 0.025 µM
- GI50 (SF-539): ≤ 0.025 µM
- GI50 (MDA-MB-435): ≤ 0.025 µM
- CC50 (MV4-11): 0.2 µM
- GI50 (SK-MEL-5): ≤ 0.025 µM

- IC50 (HCT-116): 9.52 µM
SMILES: CC1c2cc(O)c(O)cc2Oc2cc(/C=C/c3ccc(O)cc3)cc(O)c21 (stereo not drawn)

- IC50 (PC-3): 12.4 µM
- IC50 (MCF7 [3]): 14.5 µM
SMILES: Oc1ccc(/C=C/c2cccc(Br)n2)cc1O

- IC50 (HeLa [4]): 10.2 µM
SMILES: CC(=O)Oc1ccc(/C=C/c2ncc3cccc(OC(C)=O)c3n2)cc1OC(C)=O

- IC50 (MDA-MB-231 [5]): 0.072 µM
- GI50 (PANC-1; 48 h): 0.094 µM
- GI50 (PANC-1; Homo sapiens, PANC-1, 48 h): 0.064 µM
SMILES: COc1cc(/C=C/c2ccc(OC(=O)CSc3nnc(-c4cccc(C(F)(F)F)c4)o3)cc2)cc(OC)c1

- IC50 (SK-OV-3 [6]): 18.2 µM
SMILES: COc1cc(OC)cc(-n2cnc(-c3ccc(O)cc3)c2)c1

- IC50 (MCF7 [7]): 2.1 µM
- IC50 (A-431): 19.3 µM
SMILES: COc1cc(/C=C/c2ccc(SC)cc2)cc(OC)c1OC
- IC50 (MCF-12A): 25.7 µM
- IC50 (HaCaT): 10 µM

- IC50 (HeLa [8]): 38.9 µM
- IC50 (HL-60): 47.7 µM
SMILES: COc1ccc(NC(=O)c2cc(OC)cc(OC)c2)cc1

- IC50 (A2780 [9]): 4 µM
- IC50 (OVCAR-3 [10]): 50 µM
- IC50 (SK-OV-3 [11]): 8 µM
- IC50 (A2780 [13]): 6 µM
- IC50 (OVCAR-3 [14]): 85 µM
- IC50 (SK-OV-3 [15]): 10 µM
SMILES: Oc1ccc(/C=C/c2ccc(O)c(O)c2)cc1O
- IC50 [12]: 502 µM
- IC50 [16]: 532 µM
- IC50 [17]: 496 µM
- IC50 [18]: 498 µM

SMILES: COc1ccc(/C=C\c2cc(OC)cc(OC)c2)cc1 [8Z-3,4',5-TRIMETHOXYSTILBENE]
- IC50 (B16-F10 [19]): 1 µM
- inhibition (INH) (B16-F10 [20]): 75%
- viability at 10 µM (MCF7 [21]): 50%
- viability at 10 µM (ZR-75-1): < 50%
- viability at 10 µM (BT-549): 70%
- viability at 10 µM (MDA-MB-157): 25%
- viability at 10 µM (MDA-MB-231 [22]): 10%
- IC50 (HT-29): 0.115 µM
- IC50 (Caco-2): 0.145 µM
- IC50 (HepG2): 0.473 µM

SMILES: COc1ccc(/C=C\c2cc(OC)c(OC)c(OC)c2)cc1O [COMBRETASTATIN A4]
- GI50 [1]: < 0.01 µM

- IC50 (MCF7 [23]): 68.2 µM
- IC50 (MCF7 [25]): 61.7 µM
SMILES: COc1cc(/C=C/C(=O)CC(=O)/C=C/c2ccc(O)c(OC)c2)ccc1O [CURCUMIN]
- IC50 at 48 h [24]: 133 µM
- IC50 at 48 h [26]: 83.1 µM
- selectivity ratio (in vitro [27]): 1.93
- selectivity ratio (in vitro [28]): 1.35
